Results published in US8722849B2, “Polypeptides” (Novo Nordisk A/S, priority 2011, dated 2014).
Like-named read-outs stand apart in the source and are kept apart here. Starred links: 1 amine or outer side, 2 acyl side, 3 side chain; linkers in the order of their positions; H or OH if unused. Positions of bridges follow the written chain, without caps; N, C: chain ends. Residues, ends and D or L forms follow the SMILES beside them. Groups on a side chain read outwards from the residue. *: point of attachment. C20 diacid = O=C(O)CCCCCCCCCCCCCCCCCCC(=O)*; C18 diacid = O=C(O)CCCCCCCCCCCCCCCCC(=O)*; γGlu = O=C(O)[C@H](CCC(=O)[*:2])N[*:1]; AEEA = NCCOCCOCC(=O)O

Columns and labels:
[1] = biological target: T1, human amylin receptor (amylin 3(a) receptor: human calcitonin receptor + RAMP-3) (Homo sapiens, UniProt O60896+P30988); assay: Assay (II)a functional CRE-luciferase assay, human amylin receptor; assay type: cell-based; settings: Table 2; BHK amylin 3(a)-receptor/CRE-luc cells
T1 construct: expressed in transfected cells; host or cells: BHK570
T1 sequence (P30988 25-474): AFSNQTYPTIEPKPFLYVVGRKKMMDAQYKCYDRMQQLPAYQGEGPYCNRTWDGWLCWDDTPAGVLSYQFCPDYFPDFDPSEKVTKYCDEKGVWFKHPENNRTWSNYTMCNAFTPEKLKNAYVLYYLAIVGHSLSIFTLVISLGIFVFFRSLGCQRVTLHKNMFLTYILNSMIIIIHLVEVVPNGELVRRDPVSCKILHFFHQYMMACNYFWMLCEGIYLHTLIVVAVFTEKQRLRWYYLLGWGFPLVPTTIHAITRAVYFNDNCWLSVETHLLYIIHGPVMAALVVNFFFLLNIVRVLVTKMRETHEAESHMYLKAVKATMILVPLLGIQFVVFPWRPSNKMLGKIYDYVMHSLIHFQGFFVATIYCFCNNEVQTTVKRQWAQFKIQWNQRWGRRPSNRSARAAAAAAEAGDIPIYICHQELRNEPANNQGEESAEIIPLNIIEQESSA
T1 sequence (O60896 24-148 partner): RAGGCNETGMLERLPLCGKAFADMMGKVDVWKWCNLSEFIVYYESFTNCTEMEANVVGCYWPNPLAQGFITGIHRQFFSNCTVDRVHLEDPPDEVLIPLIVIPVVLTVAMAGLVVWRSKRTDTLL

[2] = Assay (III) ThT fibrillation assay for physical stability; assay type: physicochemical; settings: ThT fibrillation assay
Method in brief: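 Freshly prepared formulations, pH-adjusted, with 1 μM ThT; four or eight replicates incubated at 37 °C under 960 rpm orbital shaking. Fluorescence (ex 444/em 485 nm) read every 20 min; […]. Peptide concentration measured by RP-HPLC before and after the run.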

[3] = biological target: T2, human calcitonin receptor (Homo sapiens, UniProt P30988); assay: Assay (II)a functional CRE-luciferase assay, human calcitonin receptor; assay type: cell-based
T2 construct: expressed in transfected cells; host or cells: BHK570
T2 sequence (P30988 25-474): T1 sequence (P30988 25-474)

[4] = Assay (IV) determination of solubility; assay type: physicochemical
Method in brief: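 Solubility was profiled across pH 3.0–8.0 after 18 hours at room temperature: a ~500 nmol/ml aqueous polypeptide solution was diluted 1:1 into 100 mM glycylglycine or bistrispropane buffers. After centrifugation, HPLC gave the dissolved concentration.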

[5] = bistrispropane buffer, pH 6, pH 6.0, read-out: Solubility pH 6.0
[6] = bistrispropane buffer, pH 6.5, pH 6.5, read-out: Solubility pH 6.5
[7] = bistrispropane buffer, pH 7, pH 7.0, 18 hours at room temperature, Table 3, read-out: Solubility pH 7.0
[8] = bistrispropane buffer, pH 7, pH 7.0, read-out: Solubility pH 7.0
[9] = bistrispropane buffer, pH 7.5, pH 7.5, read-out: Solubility pH 7.5
[10] = bistrispropane buffer, pH 8, pH 8.0, read-out: Solubility pH 8.0
[11] = glycylglycine buffer, pH 3, pH 3.0, read-out: Solubility pH 3.0
[12] = glycylglycine buffer, pH 4, pH 4.0, 18 hours at room temperature, Table 2, read-out: Solubility pH 4.0
[13] = glycylglycine buffer, pH 4, pH 4.0, read-out: Solubility pH 4.0
[14] = glycylglycine buffer, pH 5, pH 5.0, read-out: Solubility pH 5.0
[15] = Table 7, human calcitonin (CTa) receptor

Row | Compound | EC50 [1] [nM] | ThT pH 4.0 lag time (h) [2] [h] | EC50 ([3]; Table 11, read-out: CTa receptor human EC50) [nM] | solubility at 18 h [4, 5] [µM] | solubility at 18 h [4, 6] [µM] | solubility at 18 h [4, 7] [µM] | solubility at 18 h [4, 8] [µM] | solubility at 18 h [4, 9] [µM] | solubility at 18 h [4, 10] [µM] | solubility at 18 h [4, 11] [µM] | solubility at 18 h [4, 12] [µM] | solubility at 18 h [4, 13] [µM] | solubility at 18 h [4, 14] [µM] | EC50 [3, 15] [nM]
1 | CC[C@H](C)[C@H](NC(=O)[C@@H]1CCCN1C(=O)CNC(=O)[C@H](Cc1ccccc1)NC(=O)[C@H](CC(N)=O)NC(=O)[C@H](CC(N)=O)NC(=O)[C@H](CO)NC(=O)[C@H](CO)NC(=O)[C@H](Cc1c[nH]cn1)NC(=O)[C@H](CCCCNC(=O)COCCOCCNC(=O)COCCOCCNC(=O)CC[C@H](NC(=O)CCCCCCCCCCCCCCCCC(=O)O)C(=O)O)NC(=O)[C@H](CC(C)C)NC(=O)[C@H](Cc1ccccc1)NC(=O)[C@H](CCC(=O)O)NC(=O)[C@H](C)NC(=O)[C@H](CC(C)C)NC(=O)[C@H](CCCNC(=N)N)NC(=O)[C@H](CCC(N)=O)NC(=O)[C@@H](NC(=O)[C@H](C)NC(=O)[C@@H]1CSSC[C@H](NC(=O)[C@@H](N)CCCCN)C(=O)N[C@@H](CC(N)=O)C(=O)N[C@@H]([C@@H](C)O)C(=O)N[C@@H](C)C(=O)N[C@@H]([C@@H](C)O)C(=O)N1)[C@@H](C)O)C(=O)N[C@@H](CC(C)C)C(=O)N1CCC[C@H]1C(=O)N1CCC[C@H]1C(=O)N[C@H](C(=O)N[C@@H](CC(N)=O)C(=O)N[C@H](C(=O)NCC(=O)N[C@@H](CO)C(=O)N[C@@H](CC(N)=O)C(=O)N[C@H](C(=O)N[C@@H](Cc1ccc(O)cc1)C(N)=O)[C@@H](C)O)C(C)C)[C@@H](C)O [Example 80, N-epsilon17-[2-(2-{2-[2-(2-{2-[(S)-4-Carboxy-4-(17-carboxyheptadecanoylamino)butyrylamino]ethoxy}ethoxy)acetylamino]ethoxy}ethoxy)acetyl]-[Glu14,Lys17]-pramlintide] (H-KCNTATCATQRLAEFLK([AEEA-AEEA-γGlu-C18 diacid])HSSNNFGPILPPTNVGSNTY-NH2; disulfide 2-7) | 0.456 | 3 | 4.3 | > 200 | > 200 | > 200 | > 200 | > 200 | > 200 | > 200 | > 200 | > 200 | > 200 | 
2 | CC[C@H](C)[C@H](NC(=O)[C@@H]1CCCN1C(=O)CNC(=O)[C@H](Cc1ccccc1)NC(=O)[C@H](CC(N)=O)NC(=O)[C@H](CC(N)=O)NC(=O)[C@H](CO)NC(=O)[C@H](CO)NC(=O)[C@H](Cc1c[nH]cn1)NC(=O)[C@H](Cc1c[nH]cn1)NC(=O)[C@H](CC(C)C)NC(=O)[C@H](Cc1ccccc1)NC(=O)[C@H](CCC(=O)O)NC(=O)[C@H](C)NC(=O)[C@H](CC(C)C)NC(=O)[C@H](CCCNC(=N)N)NC(=O)[C@H](CCC(N)=O)NC(=O)[C@@H](NC(=O)[C@H](C)NC(=O)[C@@H]1CSSC[C@H](NC(=O)[C@H](CCCCN)NC(=O)CNC(=O)CC[C@H](NC(=O)CCCCCCCCCCCCCCCCCCC(=O)O)C(=O)O)C(=O)N[C@@H](CC(N)=O)C(=O)N[C@@H]([C@@H](C)O)C(=O)N[C@@H](C)C(=O)N[C@@H]([C@@H](C)O)C(=O)N1)[C@@H](C)O)C(=O)N[C@@H](CC(C)C)C(=O)N1CCC[C@H]1C(=O)N1CCC[C@H]1C(=O)N[C@H](C(=O)N[C@@H](CC(N)=O)C(=O)N[C@H](C(=O)NCC(=O)N[C@@H](CO)C(=O)N[C@@H](Cc1c[nH]cn1)C(=O)N[C@H](C(=O)N[C@@H](Cc1ccc(O)cc1)C(N)=O)[C@@H](C)O)C(C)C)[C@@H](C)O [Example 81, N-alpha-[(S)-4-Carboxy-4-(19-carboxynonadecanoylamino)butyryl]-Gly-[Glu14,His17,His35]-pramlintide] ({C20 diacid-γGlu}-GKCNTATCATQRLAEFLHHSSNNFGPILPPTNVGSHTY-NH2; disulfide 3-8 (inferred); C-terminus assumed) | 0.0955 | 24 |  | > 200 | > 200 | > 200 | > 200 | > 200 | > 200 | > 200 | > 200 | > 200 | > 200 | 0.0705
3 | CC[C@H](C)[C@H](NC(=O)[C@@H]1CCCN1C(=O)CNC(=O)[C@H](Cc1ccccc1)NC(=O)[C@H](CC(N)=O)NC(=O)[C@H](CC(N)=O)NC(=O)[C@H](CO)NC(=O)[C@H](CO)NC(=O)[C@H](Cc1c[nH]cn1)NC(=O)[C@H](Cc1c[nH]cn1)NC(=O)[C@H](CC(C)C)NC(=O)[C@H](Cc1ccccc1)NC(=O)[C@H](CCC(=O)O)NC(=O)[C@H](C)NC(=O)[C@H](CC(C)C)NC(=O)[C@H](CCCNC(=N)N)NC(=O)[C@H](CCC(N)=O)NC(=O)[C@@H](NC(=O)[C@H](C)NC(=O)[C@@H]1CSSC[C@H](NC(=O)[C@H](CCC(=O)O)NC(=O)COCCOCCNC(=O)COCCOCCNC(=O)CC[C@H](NC(=O)CCCCCCCCCCCCCCCCC(=O)O)C(=O)O)C(=O)N[C@@H](CC(N)=O)C(=O)N[C@@H]([C@@H](C)O)C(=O)N[C@@H](C)C(=O)N[C@@H]([C@@H](C)O)C(=O)N1)[C@@H](C)O)C(=O)N[C@@H](CC(C)C)C(=O)N1CCC[C@H]1C(=O)N1CCC[C@H]1C(=O)N[C@H](C(=O)N[C@@H](CC(N)=O)C(=O)N[C@H](C(=O)NCC(=O)N[C@@H](CO)C(=O)N[C@@H](CC(N)=O)C(=O)N[C@H](C(=O)N1CCC[C@H]1C(N)=O)[C@@H](C)O)C(C)C)[C@@H](C)O [Example 82, N-alpha-[2-(2-{2-[2-(2-{2-[(S)-4-Carboxy-4-(17-carboxyheptadecanoylamino)butyrylamino]ethoxy}ethoxy)acetylamino]ethoxy}ethoxy)acetyl]-[Glu1,Glu14,His17,Pro37]-pramlintide] ({C18 diacid-γGlu-AEEA-AEEA}-ECNTATCATQRLAEFLHHSSNNFGPILPPTNVGSNTP-NH2; disulfide 2-7 (inferred); C-terminus assumed) | 0.108 | 14 |  | > 200 | > 200 | > 200 | > 200 | > 200 | > 200 | > 200 | > 200 | > 200 | > 200 | 0.288
